# According to PMC5876388 (Scientific Reports, 2018):
# Key:
# [1] = system: Notch signaling (LS174T Notch cells); assay: Notch signaling transcriptional activity assay (luciferase reporter, T-REx system); type: cell-based; details: Homo sapiens, LS174T, 12 h, read-out: IC50 of Notch signal inhibitory activity (luciferase)
# Text: We constructed a cell-based reporter assay with the T-Rex system to evaluate Notch signaling inhibitory activity. Without doxycycline (Dox), the tetracycline repressor (TetR) inhibits the expression of N-terminally FLAG-tagged mouse Notch1(1704–2531), which is 40 aa longer than NICD at the N-terminus. In the presence of Dox, Dox binds to the TetR to release the inhibition of expression of Notch1(1704–2531). Cleavage of Notch1(1704–2531) by γ-secretase generates NICD, which then translocates to the nucleus and forms a heterotrimer with RBP-J driving luciferase transcription (Fig. 2). This assay cells (LS174T Notch cells) was stably incorporated with pGL4.20 luciferase plasmid which has 12 × RBP-J binding site (12 copies of […])-β-globin promoter. Cell viability was measured using a fluorometric microculture cytotoxicity assay. […] The composition of the G. speciosa MeOH extract was partitioned successively with hexane, EtOAc, nBuOH, and water.
# Figure 2 The T-REx assay system. Without Dox, expression of Notch1(1704–2531) is suppressed by TetR. The addition of Dox inactivates TetR to initiate expression of Notch1(1704–2531), which is then cleaved by endogenous γ-secretase to form NICD. NICD then translocates to the nucleus and forms a heterotrimer with RBP-J and MAML that binds to a 12× RBP-J binding site to drive luciferase expression. Luciferase activity was detected as Notch signaling pathway activity. Dox: doxycycline, TetR: tetracycline repressor, Luc.: luciferase.
# Assay cells (LS174T Notch cells: 2 × 10^4 cells/well) were incubated in a 96-well white plate at 37 °C for 12 h. After incubation, 50 ng/mL Dox was added to each well to induce expression of exogenous Notch1(1704–2531) protein. After incubation at 37 °C for 12 h, the medium was changed to Dox-free medium containing individual samples. Luciferase activity was measured after treatment at 37 °C for 12 h. Cell viability was evaluated by the FMCA method at the same time. These assays were performed in 0.1% DMSO (n = 3). Error bars represent SD.
# In a 96-well white plate, Cells (LS174T Notch cells; 2 × 10^4 cells per well) were cultured at 37 °C for 12 h. To express Notch1(1704–2531) protein in the cells, doxycycline (50 ng/mL) was added to each well, and cells were cultured at 37 °C for 12 h. Medium was changed to doxycycline-free medium containing each sample, then cells were incubated with at 37 °C for 12 h. A microplate luminometer (Thermo Fisher Scientific Inc., Waltham, USA) and the Bright-Glo™ Luciferase Assay System (Promega Co., Madison, USA) were used for measurement of Luciferase activity. Fluorometric Microculture Cytotoxicity Assay (FMCA) was used for measurement of cell viability of the sample-treated cells. After incubation of assay cells (2×10^4 cells per well) in a 96-well black plate at 37 °C for 24 h, samples addition was performed at the same time as the luciferase assay. The assay cells were cultures at 37 °C for 12 h. A fluorescence plate reader (Thermo Fisher Scientific Inc., Waltham, USA) was used for determination of cell viability by FMCA.
# [2] = molecular target: T1, nicastrin (Homo sapiens, UniProt Q92542); assay: Western blot in HPB-ALL cells; type: cell-based
# T1 construct: endogenous in cells; host or cells: HPB-ALL
# T1 sequence (Q92542 34-709): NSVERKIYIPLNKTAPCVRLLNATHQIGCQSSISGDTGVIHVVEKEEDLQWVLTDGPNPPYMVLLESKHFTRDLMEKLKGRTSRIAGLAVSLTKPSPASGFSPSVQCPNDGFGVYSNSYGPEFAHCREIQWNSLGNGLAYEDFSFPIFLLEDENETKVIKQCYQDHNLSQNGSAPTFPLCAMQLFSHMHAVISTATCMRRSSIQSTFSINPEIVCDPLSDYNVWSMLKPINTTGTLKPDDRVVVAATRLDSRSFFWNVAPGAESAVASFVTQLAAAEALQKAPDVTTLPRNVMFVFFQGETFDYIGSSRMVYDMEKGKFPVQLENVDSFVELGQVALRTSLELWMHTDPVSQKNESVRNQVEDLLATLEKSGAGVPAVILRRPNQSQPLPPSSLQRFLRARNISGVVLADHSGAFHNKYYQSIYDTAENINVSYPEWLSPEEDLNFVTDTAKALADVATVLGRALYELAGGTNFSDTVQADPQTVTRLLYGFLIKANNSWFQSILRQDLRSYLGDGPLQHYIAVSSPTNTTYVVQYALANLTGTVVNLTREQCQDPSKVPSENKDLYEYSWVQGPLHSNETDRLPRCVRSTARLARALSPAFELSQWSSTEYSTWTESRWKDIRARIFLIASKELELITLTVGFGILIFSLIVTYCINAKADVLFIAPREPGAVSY
# Experimental: (A) Schematic representation of γ-secretase complex. γ-Secretase is composed of four membrane proteins: presenilin1 (PS1), nicastrin (NCT), anterior pharynx defective 1 (APH-1) and presenilin enhancer 2 (PEN-2). […] (E,F) Relative protein levels of nicastrin mature and immature analyzed by densitometry. […] P values were analyzed by Student’s t test.
# Media also contained different concentrations of compound. Cells were incubated at 37 °C for 72 h (12 h, when treatment with MG132). After incubation, cells were centrifuged and collected, and then washed with 500 μL of PBS twice. To prepare cell lysate and confirm protein expression levels, the same method as described above was used.
# [3] = system: HES1; assay: Western blot in HPB-ALL cells; type: cell-based, human; details: 10 μM, 72 h
# Experimental: (§1) HPB-ALL cells (1 × 10^4 cells per well) were incubated in 96-well black plates at 37 °C for 72 h. Media also contained different concentrations of compound. After incubation, AlamarBlue was added 10 μL per well. After incubation for 4 h, using a fluorescence plate reader, fluorescence was measured and cell viability was determined. Data are presented as the mean with SD from three independent experiments. […] The effect on protein expression was analyzed by Western blotting. β-Actin was used as internal control. (D,E) Relative protein levels of NICD and HES1 analyzed by densitometry. Data are presented as the mean with SD from three independent experiments. *P < 0.05 is considered statistically significant. P values were analyzed by Student’s t test.
# (§2) HPB-ALL cells were incubated in a 6 cm dish in 5 mL of RPMI-1640 medium with 10% FBS, Streptomycin (100 μg/mL) and Penicillin (100 unit/mL) at 5 × 10^5 cells per dish (1 × 10^6 cells per dish, when treatment with MG132). Media also contained different concentrations of compound. Cells were incubated at 37 °C for 72 h (12 h, when treatment with MG132). After incubation, cells were centrifuged and collected, and then washed with 500 μL of PBS twice. To prepare cell lysate and confirm protein expression levels, the same method as described above was used.
# [4] = system: NICD; assay: Western blot in HPB-ALL cells; type: cell-based, human; details: 10 μM, 72 h
# Experimental: as §1, §2
smiles,measurement,setting,value
"COc1c(O)cc2oc3cc(O)c(CC=C(C)C)c(O)c3c(=O)c2c1C/C=C(\C)CCC=C(C)C [Compound 2, cowanin]",IC50,[1],2.4 µM
same,immature versus mature nicastrin,"[2]; 15 μM, 12 h, densitometry",decreased immature nicastrin stronger than mature nicastrin
same,nicastrin levels,"[2]; 72 h, Western blot",reduced
same,decrease in nicastrin expression with proteasome inhibitor MG132,"[2]; cowanin 15 μM + MG132 5 μM, 12 h",not so marked
same,expression of HES1,[3],reduced
same,expression of NICD,[4],reduced
